In patent US20090047243A1, “COMBINATIONS FOR THE TREATMENT OF B-CELL PROLIFERATIVE DISORDERS” (priority 2007, published 2009):
Where a name gives a salt, the structure may show the parent alone.

Experiments:
patient CLL cells = assay: Apoptosis assay (Hoechst 33342, flow cytometry, 48 h); assay type: cell-based, human; set-up: unit not given here; conditions: CGS-21680 0 μM
From the text: Blood samples were obtained in heparinized tubes with IRB-approved consent from flow cytometry-confirmed B-CLL patients that were either untreated or for whom at least 1 month had elapsed since chemotherapy. Patients with active infections or other serious medical conditions were not included in this study. Patients with white blood cell counts of less than 15,000/μl by automated analysis were excluded from this study. Whole blood was layered on Ficoll-Hystopaque (Sigma), and peripheral blood mononuclear cells (PBMC) isolated after centrification. […] One million cells were stained with anti-CD5-PE and anti-CD19-PE-Cy5 (Becton Dickenson, Franklin Lakes N.J.). The percentage of B-CLL cells was defined as the percentage of cells doubly expressing CD5 and CDl9, as determined by flow cytometry. […] Compound master plates were diluted 1:50 into complete media to create working compound dilutions. Compound crosses were then created by diluting two working dilution plates 1:10 into each plate of cells. […] Hoechst 33342 (Molecular Probes, Eugene Oreg.) at a final concentration of 0.25 μg/1 mL was added to each well, and the cells incubated at 37° C. for an additional ten minutes before being placed on ice until analysis. Plates were then analyzed on a LSR-II flow cytometer (Becton Dickenson, Franklin Lakes, N.J.) equipped with the High Throughput Sampling (HTS) option in high throughput mode. […] The apoptotic fraction was calculated using FlowJo software (Tree Star Inc., Ashland, Oreg.) after excluding debris by a FSC/SSC gate and subsequently gating for cells that accumulate the Hoechst dye.

A2A receptor = A2A receptor (Homo sapiens, UniProt P29274); conditions: cited from earlier work
A2A receptor, sequence (P29274 whole entry): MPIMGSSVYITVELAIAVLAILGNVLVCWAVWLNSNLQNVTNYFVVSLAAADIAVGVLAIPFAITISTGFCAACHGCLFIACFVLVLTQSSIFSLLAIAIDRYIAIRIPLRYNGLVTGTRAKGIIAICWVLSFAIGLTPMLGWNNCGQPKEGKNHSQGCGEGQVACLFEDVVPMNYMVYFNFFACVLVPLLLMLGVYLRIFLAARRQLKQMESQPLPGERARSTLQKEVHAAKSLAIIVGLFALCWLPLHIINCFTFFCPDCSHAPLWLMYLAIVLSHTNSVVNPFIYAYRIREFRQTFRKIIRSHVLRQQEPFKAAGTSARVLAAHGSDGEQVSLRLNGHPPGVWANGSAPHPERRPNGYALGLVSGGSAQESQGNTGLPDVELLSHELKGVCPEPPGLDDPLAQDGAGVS

Row | SMILES | Induction of apoptosis (patient CLL cells; Trequinsin 0.22 μM) | Induction of apoptosis (patient CLL cells; Trequinsin 2 μM) | Induction of apoptosis (patient CLL cells; Trequinsin […]) | Ki (A2A receptor) [nM]
1 | COc1cc2c(cc1OC)-c1cc(=Nc3c(C)cc(C)cc3C)n(C)c(=O)n1CC2 [Trequinsin hydrochloride, 2,3,6,7-tetrahydro-9,10-dimethoxy-3-methyl-2-((2,4,6-trimethylphenyl)imino)-4H-pyrimido(6,1-a)isoquinolin-4-one] | 8.9 | 19 | 9.9 | –
2 | CCCCC#Cc1nc(N)c2ncn([C@@H]3O[C@H](C(=O)NCC)[C@@H](O)[C@H]3O)c2n1 [HE-NECA, hexynyladenosine-5′-N-ethylcarboxamide] | – | – | – | ~27
